According to ChEMBL document CHEMBL1151503, “Synthesis of novel ellipticine analogues and their inhibition of Moloney leukaemia reverse transcriptase” (Bioorg Med Chem Lett, 1996):

What was measured:
Set-up in all cases: scale not given: the % may be the effect or the level left
[1] = tested on: Moloney murine leukemia virus reverse transcriptase; assay: Compound was evaluated for inhibition of against moloney leukemia reverse transcriptase at concentration 0 mg/ml
[2] = tested on: Moloney murine leukemia virus reverse transcriptase; assay: Compound was evaluated for inhibition of against moloney leukemia reverse transcriptase at concentration 0.02 mg/mL
[3] = tested on: Moloney murine leukemia virus reverse transcriptase; assay: Compound was evaluated for inhibition of against moloney leukemia reverse transcriptase at concentration 0.04 mg/mL
[4] = tested on: Moloney murine leukemia virus reverse transcriptase; assay: Compound was evaluated for inhibition of against moloney leukemia reverse transcriptase at concentration 0.01 mg/mL
[5] = tested on: Moloney murine leukemia virus reverse transcriptase; assay: Compound was evaluated for inhibition of against moloney leukemia reverse transcriptase at concentration 0.1 mg/mL
[6] = tested on: Moloney murine leukemia virus reverse transcriptase; assay: Compound was evaluated for inhibition of against moloney leukemia reverse transcriptase at concentration 0.08 mg/mL

Control [1] [%]	Control [2] [%]	Control [3] [%]	Control [4] [%]	Control [5] [%]	Control [6] [%]	Compound
100	30	3	48	2	1	Cn1c2ccccc2c2cc3ccccc3c[n+]21
100	30	3	78	2	1	Cn1c2ccc(Cl)cc2c2cc3ccccc3c[n+]21
